The results in this text go back to paper PMC4992410 (ACS chemical biology, 2016).

Structures are written as SMILES.

This experiment has as its system full-length IRE1α in INS-1 rat insulinoma cells. The experiment in a line: XBP1 mRNA splicing in INS-1 cells. The class given is cell-based. To be noted: absence of ER stress; for spliced cellular XBP1 mRNA levels: 3 and 10 μM, 2 hours.

For the compound `COc1cc(N2CCC(N3CCN(C)CC3)CC2)ccc1Nc1ncc(Cl)c(Nc2ccccc2P(C)(C)=O)n1` [AP26113], the “spliced cellular XBP1 mRNA levels” value is recorded as “increase in spliced cellular XBP1 mRNA levels” and the “spliced XBP1 mRNA level compared with 0.5 μg/mL tunicamycin” value was “equal or greater level”. For `O=C(Nc1c[nH]nc1-c1nc2ccc(CN3CCOCC3)cc2[nH]1)NC1CC1` [AT9283], the “spliced cellular XBP1 mRNA levels” value was “increase in spliced cellular XBP1 mRNA levels” and the “spliced XBP1 mRNA level compared with 0.5 μg/mL tunicamycin” value is “equal or greater level”. Turning to `NC(=O)Nc1cc(-c2cccc(F)c2)sc1C(=O)N[C@H]1CCCNC1` [AZD7762], the “spliced cellular XBP1 mRNA levels” value was “increase in spliced cellular XBP1 mRNA levels”. Same read-out and setting: under `COc1cc(N2CCC(N3CCN(C)CC3)CC2)ccc1Nc1ncc(Cl)c(Nc2ccccc2S(=O)(=O)C(C)C)n1` [TAE684] stands “increase in spliced cellular XBP1 mRNA levels”.
